From paper PMC12587574, “Mass balance, pharmacokinetics, metabolism, and excretion of radiolabeled acoziborole, a potential novel treatment for human African trypanosomiasis, following single microtracer oral dose to humans” (Antimicrobial Agents and Chemotherapy, 2025)

How the values were obtained:
[1] = molecular target: T1, CYP2C8 (Homo sapiens, UniProt P10632); experiment: Incubation with CYP450 recombinant enzymes (Bactosomes) and NADPH; type: in vitro ADME; details: 1 µM
T1 construct: purchased
T1 sequence (P10632 1-490): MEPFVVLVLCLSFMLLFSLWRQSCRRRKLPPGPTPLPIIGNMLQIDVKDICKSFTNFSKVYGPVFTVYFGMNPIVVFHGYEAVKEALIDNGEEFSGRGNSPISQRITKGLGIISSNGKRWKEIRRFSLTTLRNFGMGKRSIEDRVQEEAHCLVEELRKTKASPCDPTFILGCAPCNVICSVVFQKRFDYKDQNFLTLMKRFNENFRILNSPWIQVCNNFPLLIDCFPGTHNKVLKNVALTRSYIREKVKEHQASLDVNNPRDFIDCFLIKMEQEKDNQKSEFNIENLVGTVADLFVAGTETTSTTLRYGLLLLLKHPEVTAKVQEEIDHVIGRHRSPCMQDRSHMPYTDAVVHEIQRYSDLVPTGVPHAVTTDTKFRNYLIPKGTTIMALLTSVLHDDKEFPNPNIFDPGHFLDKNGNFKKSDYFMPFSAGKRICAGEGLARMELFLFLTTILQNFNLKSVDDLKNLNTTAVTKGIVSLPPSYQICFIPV

[2] = Safety and tolerability assessment, phase I mass balance study; type: in vivo, human
Protocol: Safety was assessed by adverse event (AE) reports and at specific times during the physical examination, vital signs, 12-lead ECGs, and laboratory evaluations (see Supplementary Information section 2). AEs were all recorded from the time participants signed the consent form until the follow-up call, 5–10 days after final study discharge, and were evaluated for type, severity, frequency of AEs, and relationship to the IP.

[3] = design: method as in PMID 21738803; details: NHPs, cited from earlier work
[4] = design: method as in PMID 21738803; details: rats; cited from earlier work
[5] = Distribution study of [14C]-acoziborole in Sprague-Dawley rats; type: in vivo; details: 10 mg/kg (200 µCi/kg)

## CC1(C)OB(O)c2cc(NC(=O)c3ccc(F)cc3C(F)(F)F)ccc21 [acoziborole]
[1]
  metabolism by recombinant CYP2C8: metabolized by
[2]; 960 mg single oral dose, N = 6
  overall tolerability: well-tolerated overall
[2]; Day 1, N = 6
  Balanitis candida, participants: 0 (0.0) 0 (0.0) n (%)
  Blood glucose increased, participants: 0 (0.0) 0 (0.0) n (%)
  Gastrointestinal disorders (system organ class), events: 0
  Gastrointestinal disorders (system organ class), participants: 0 (0.0) n (%)
  Headache, events: 2
  Headache, participants: 2 (33.3) n (%)
  Infections and infestation (system organ class), events: 0
  Infections and infestation (system organ class), participants: 0 (0.0) n (%)
  Injury, poisoning and procedural complications (system organ class), events: 0
  Injury, poisoning and procedural complications (system organ class), participants: 0 (0.0) n (%)
  Investigations (system organ class), events: 0
  Investigations (system organ class), participants: 0 (0.0) n (%)
  Myalgia, events: 0
  Myalgia, participants: 0 (0.0) n (%)
  Nervous system disorders (system organ class), events: 2
  Nervous system disorders (system organ class), participants: 2 (33.3) n (%)
  Phosphokinase increased, participants: 0 (0.0) 0 (0.0) n (%)
  Rhinitis, participants: 0 (0.0) 0 (0.0) n (%)
  Skin laceration, events: 0
  Skin laceration, participants: 0 (0.0) n (%)
  Surgical and medical procedures (system organ class), events: 0
  Surgical and medical procedures (system organ class), participants: 0 (0.0) n (%)
  TEAEs, events: 2
  TEAEs, participants: 2 (33.3) n (%)
  Tooth repair, events: 0
  Tooth repair, participants: 0 (0.0) n (%)
  Toothache, events: 0
  Toothache, participants: 0 (0.0) n (%)
[2]; Day 2 to Day 15, N = 6
  Balanitis candida, events: 2
  Balanitis candida, participants: 1 (16.7) n (%)
  Blood glucose increased, events: 0
  Blood glucose increased, participants: 0 (0.0) n (%)
  Gastrointestinal disorders (system organ class), events: 1
  Gastrointestinal disorders (system organ class), participants: 1 (16.7) n (%)
  Headache, events: 1
  Headache, participants: 1 (16.7) n (%)
  Infections and infestation (system organ class), events: 2
  Infections and infestation (system organ class), participants: 1 (16.7) n (%)
  Injury, poisoning and procedural complications (system organ class), events: 0
  Injury, poisoning and procedural complications (system organ class), participants: 0 (0.0) n (%)
  Investigations (system organ class), events: 1
  Investigations (system organ class), participants: 1 (16.7) n (%)
  Myalgia, events: 0
  Myalgia, participants: 0 (0.0) n (%)
  Nervous system disorders (system organ class), events: 1
  Nervous system disorders (system organ class), participants: 1 (16.7) n (%)
  Phosphokinase increased, events: 1
  Phosphokinase increased, participants: 1 (16.7) n (%)
  Rhinitis, events: 0
  Rhinitis, participants: 0 (0.0) n (%)
  Skin laceration, events: 0
  Skin laceration, participants: 0 (0.0) n (%)
  Surgical and medical procedures (system organ class), events: 1
  Surgical and medical procedures (system organ class), participants: 1 (16.7) n (%)
  TEAEs, events: 6
  TEAEs, participants: 4 (66.7) n (%)
  Tooth repair, events: 1
  Tooth repair, participants: 1 (16.7) n (%)
  Toothache, events: 1
  Toothache, participants: 1 (16.7) n (%)
[2]; Day 16 to end of study, N = 6
  Balanitis candida, events: 0
  Balanitis candida, participants: 0 (0.0) n (%)
  Blood glucose increased, events: 1
  Blood glucose increased, participants: 1 (16.7) n (%)
  Gastrointestinal disorders (system organ class), events: 0
  Gastrointestinal disorders (system organ class), participants: 0 (0.0) n (%)
  Headache, events: 1
  Headache, participants: 1 (16.7) n (%)
  Infections and infestation (system organ class), events: 1
  Infections and infestation (system organ class), participants: 1 (16.7) n (%)
  Injury, poisoning and procedural complications (system organ class), events: 1
  Injury, poisoning and procedural complications (system organ class), participants: 1 (16.7) n (%)
  Investigations (system organ class), events: 1
  Investigations (system organ class), participants: 1 (16.7) n (%)
  Myalgia, events: 1
  Myalgia, participants: 1 (16.7) n (%)
  Nervous system disorders (system organ class), events: 1
  Nervous system disorders (system organ class), participants: 1 (16.7) n (%)
  Phosphokinase increased, events: 0
  Phosphokinase increased, participants: 0 (0.0) n (%)
  Rhinitis, events: 1
  Rhinitis, participants: 1 (16.7) n (%)
  Skin laceration, events: 1
  Skin laceration, participants: 1 (16.7) n (%)
  Surgical and medical procedures (system organ class), events: 0
  Surgical and medical procedures (system organ class), participants: 0 (0.0) n (%)
  TEAEs, events: 5
  TEAEs, participants: 3 (50.0) n (%)
  Tooth repair, events: 0
  Tooth repair, participants: 0 (0.0) n (%)
  Toothache, events: 0
  Toothache, participants: 0 (0.0) n (%)
[2]; N = 6
  TEAEs not considered related to the IP: 10/13
  changes in ECG parameters, vital signs, or physical examination post-dose: no significant changes
  deaths, serious AEs, discontinuations due to AE: no deaths, serious AEs, or participant discontinuations due to any AE
  mean laboratory testing results (blood chemistry, hematology, urinalysis): within acceptable range or considered non-clinically significant
  severity of reported TEAEs: mild or moderate
[2]; human, in vivo, 1 day
  Musculoskeletal and connective tissue disorders (system organ class), events: 0
  Musculoskeletal and connective tissue disorders (system organ class), participants: 0 (0.0) n (%)
[2]; in the six participants
  treatment-emergent AEs, total number: 13
[3]; at each time point
  concentration in the CSF as percentage of the plasma concentration: approximately 5%
[3]; oral
  absolute bioavailability: 89%
[4]
  brain to plasma AUC0–24h ratio: 44%
[5]; female rats
  radioactivity collected in feces during 7 days, share of total radioactivity: > 73%
  radioactivity in combined feces and urine during 7 days, share of total radioactivity: > 86%
[5]; male rats
  radioactivity collected in feces during 7 days, share of total radioactivity: over 66%
  radioactivity in combined feces and urine during 7 days, share of total radioactivity: over 85%
